The values below come from US6521211B1, “Methods of imaging and treatment with targeted compositions” (Bristol-Myers Squibb Medical Imaging, Inc., priority 1995, dated 2003).

Each structure is given as a SMILES string.

This assay relates to β-galactosidase gene (pSV β-gal). Description: in vivo delivery of genetic material in rats, X-gal staining, with or without ultrasound. Also on record: species or system Sprague Dawley rats. Particulars: mixed with plasmid pSV β-gal, tail vein, 48 hours. How it is done:
Plasmid pSV β-gal (Promega, Madison, Wiss.), which contains the β-galactosidase gene, and the cationic lipid compound prepared in Example 3 were combined by mixing. The resulting mixture was injected into each of three Sprague Dawley rats (rats (A), (B) and (C)) via the tail vein. Rat (A) was not subjected to ultrasound. Ultrasonic energy was applied to the inside of the hind leg during injection for each of rats (B) and (C). After 48 hours, the rats were euthanized and the tissues were removed. The tissues were fixed for 72 hours in 2% formalin, sliced thin and placed in an X-gal solution. After 16 hours at 37° C., the tissues were inspected.

`CCCCCCCCCCCCCCCCOC(=O)CN(CC[N+](C)(CC(=O)NCC[N+](C)(C)C)CC(=O)OCCCCCCCCCCCCCCCC)CC(=O)O` (stereo not drawn) [Example 3, N,N′-bis (hexadecyloxycarbonylmethylene)-N-(β-N,N,N-trimethylammoniumethyl-aminocarbonylmethylene) -N-methyl-N′-(carboxymethylene)ethylenediamine diiodide]: the “X-gal staining of tissue (transfection)” value was “blue color which is indicative of general transfection” (rat (A), no ultrasound); “blue color only at the site where ultrasound energy was applied” (rats (B) and (C), ultrasonic energy to inside of hind leg during injection).
